From patent US20230147257A1 (DONG-A ST CO., LTD., priority 2020, published 2023)
Like-named read-outs stand apart in the source and are kept apart here.

Legend:
Type in all cases: cell-based
AhR [1] = biological target: T1, AhR (Homo sapiens, UniProt P35869); test: In vitro assay 4: endogenous AhR activity assay (CYP1A1 and CYP1B1 mRNA, qRT-PCR, HepG2 cells); details: TCDD 10 nM with compound 123 nM, 4 hours, mRNA relative to β-actin
T1 construct: host or cells: HepG2
T1 sequence (P35869 11-848): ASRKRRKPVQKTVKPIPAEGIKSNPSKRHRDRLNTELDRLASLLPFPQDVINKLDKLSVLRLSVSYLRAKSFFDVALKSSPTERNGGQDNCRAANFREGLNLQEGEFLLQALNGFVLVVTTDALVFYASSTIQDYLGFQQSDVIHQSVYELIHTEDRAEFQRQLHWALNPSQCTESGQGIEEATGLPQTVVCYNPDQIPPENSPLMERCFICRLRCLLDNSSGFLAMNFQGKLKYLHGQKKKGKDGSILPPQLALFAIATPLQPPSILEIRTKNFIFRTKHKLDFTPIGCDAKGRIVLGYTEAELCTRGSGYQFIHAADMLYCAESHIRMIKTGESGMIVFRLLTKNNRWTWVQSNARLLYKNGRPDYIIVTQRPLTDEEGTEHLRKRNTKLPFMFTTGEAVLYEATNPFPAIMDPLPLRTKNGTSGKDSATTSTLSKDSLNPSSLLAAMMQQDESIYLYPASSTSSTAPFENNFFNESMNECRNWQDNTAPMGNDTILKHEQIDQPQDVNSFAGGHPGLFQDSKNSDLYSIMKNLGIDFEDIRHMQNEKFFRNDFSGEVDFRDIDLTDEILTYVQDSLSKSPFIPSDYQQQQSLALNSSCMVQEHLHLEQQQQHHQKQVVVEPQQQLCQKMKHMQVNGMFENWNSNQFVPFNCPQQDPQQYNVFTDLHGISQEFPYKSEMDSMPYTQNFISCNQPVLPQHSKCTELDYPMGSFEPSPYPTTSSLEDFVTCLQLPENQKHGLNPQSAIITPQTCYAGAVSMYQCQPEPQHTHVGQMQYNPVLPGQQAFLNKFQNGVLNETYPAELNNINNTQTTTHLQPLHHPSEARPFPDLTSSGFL
Description: In Vitro Assay 4: Endogenous AhR Activity Assay
HepG2 cells were seeded in 12-well plate (3×10^5 cells/well). A day after seeding, the cells were treated with TCDD (10 nM) alone or with compounds (123 nM) for 4 hours. Total RNA was extracted using Trizol (Thermo Fisher Scientific). cDNA synthesis and quantitative RT-PCR (qRT-PCR) assays were performed using PrimeScript™ RT Master Mix (TAKARA) and TB Green™ Premix Ex Taq™ II (TAKARA) in accordance with manufacturer's instruction. For the measurement of endogenous AhR activity, relative mRNA levels of CYP1A1 and CYP1B1 were quantitated relative to β(beta)-actin mRNA by the comparative Ct (ΔΔCt) method. The percent inhibitions were calculated according to: […]

AhR [2] = biological target: T1, AhR; test: In vitro assay 1: XRE-luciferase reporter assay, antagonism in human cell line (HepG2); details: HepG2 XRE-luciferase, cells treated with kynurenine 200 μM (no *), 6 hours; read-out: Assay 1: AhR-Luc Human Antagonism (IC50)
Summary of the method: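 HepG2 cells carrying XRE-firefly luciferase (transient or stable) plus constitutive Nano-Luc control, stimulated 6 h with kynurenine (50 or 200 μM) with or without compound. Firefly/Nano-Luc ratio normalized to kynurenine-alone (maximum) and vehicle (minimum); IC50 by four-parameter nonlinear regression.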

AhR [3] = biological target: T1, AhR; test: In vitro assay 3: XRE-luciferase reporter assay, agonism in human cell line (HepG2); details: HepG2 XRE-Luc, tryptophan free medium, test compound alone, 6 hours
Summary of the method: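 HepG2 cells co-transfected with XRE-firefly luciferase and constitutive Nano-luciferase reporters, plated in tryptophan-free medium with 1% dialyzed FBS, then treated with compound for 6 h at 37 °C. Firefly/Nano-Luc ratio used to derive EC50 by four-parameter nonlinear regression; TCDD as positive control.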

With `CC(CO)n1cnc2c(-c3cccnc3)nc(-c3ccc(Cl)cc3)cc2c1=O` (centres unmarked) [Example 46, 6-(4-chlorophenyl)-3-(1-hydroxypropan-2-yl)-8-(pyridin-3-yl)pyrido[3,4-d]pyrimidin-4(3H)-one] the inhibition at 0.123 µM (AhR [1]; read-out: CYP1A1 (% Inhibition)) was 90.7%, the inhibition at 0.123 µM (AhR [1]; read-out: CYP1B1 (% Inhibition)) was 99.1% and the IC50 (AhR [2]) was under 0.01 µM. It also gave an EC50 (AhR [3]; read-out: Assay 3: AhR-Luc Human Agonism (EC50)) of over 30000 nM and an EC50 (AhR [3]; read-out: Assay 3: AhR-Luc Human Agonism (EC50, nM), class in brackets) of over 10000 nM.
